Results as given in patent US12006500B2 (priority 2020, dated 2024).
Where two headings read alike, the source gives them in different places. d = 2'-deoxy (DNA); r = 2'-OH (RNA)

Experiments:
Type in all cases: cell-based
[1] = tested on: SARS-CoV-2 target gene fragments (Spike, ORF1ab, ORF3A & E & M, N & ORF10 & 3'UTR); conditions: for Primary Screening (KD %, 60 ng/well, 48 h, 96 well) 293T / EC50 (pg/ul, 48 h, 96 well) 293T: Table C; for EC50 293T cells: Table D
[2] = tested on: SARS-CoV-2 target gene fragments (Spike, ORF1ab, ORF3A & E & M, N & ORF10 & 3'UTR); conditions: for Primary Screening (KD %, 60 ng/well, 48 h, 96 well) A549 / EC50 (pg/ul, 48 h, 96 well) A549: Table C; for EC50 A549 cells: Table D
SARS-CoV-2 = conditions: for inhibition of infection compared to the NS control / block of infection at the lowest concentration tested: concentration curves; for inhibition of infection compared to the NS control: individual siRNAs at varying concentrations, flat response; for block of infection at the lowest concentration tested: 3 nM; for Duplicate A % Infection / Duplicate B % Infection / Mean % infected / Mean % inhibition / Duplicate A % Inhibition / Duplicate B % Inhibition: primary screen using live virus; for Mean % infected / Mean % inhibition: average of the duplicates; for Mean % inhibition: vs non-silencing controls; for Duplicate A % Inhibition / Duplicate B % Inhibition: compared to the mean of the non-silencing controls

CGACTACTAGCGTGCCTTT [COV6]
Primary Screening (KD %, 60 ng/well, 48 h, 96 well) 293T [1]: 78% | EC50 (pg/ul, 48 h, 96 well) 293T [1]: 17.9 pg/µL | EC50 293T cells [1]: 17.9 ng/mL | Primary Screening (KD %, 60 ng/well, 48 h, 96 well) A549 ([2]; A549): 87% | EC50 (pg/ul, 48 h, 96 well) A549 ([2]; A549): 0.9 pg/µL | EC50 A549 cells [2]: 0.9 ng/mL | inhibition of infection compared to the NS control (SARS-CoV-2): ~50%

UUUGGUGGUUUUAAUUUUUCACAAA (antisense strand not given here) [Guangzhou30]
Primary Screening (KD %, 60 ng/well, 48 h, 96 well) 293T [1]: 86% | Primary Screening (KD %, 60 ng/well, 48 h, 96 well) A549 ([2]; A549): 78%

GCCGCAAATTGCACAATTT [COV15]
block of infection at the lowest concentration tested (SARS-CoV-2): complete block of infection | Duplicate A % Infection (SARS-CoV-2): 10% | Duplicate B % Infection (SARS-CoV-2): 13% | Mean % infected (SARS-CoV-2): 11% | Mean % inhibition (SARS-CoV-2): 56% | Duplicate A % Inhibition (SARS-CoV-2): 54% | Duplicate B % Inhibition (SARS-CoV-2): 57%

CAAGUCAAACAAAUUUACAdTdT (sense CAAGUCAAACAAAUUUACATT; sugars from the 5' end r19 d2, backbone not given here) [Guangzhou5]
Primary Screening (KD %, 60 ng/well, 48 h, 96 well) 293T [1]: 75% | Primary Screening (KD %, 60 ng/well, 48 h, 96 well) A549 ([2]; A549): 80%

GGAAGAGCCCTAATGTGTA [COV21]
block of infection at the lowest concentration tested (SARS-CoV-2): complete block of infection

CCTAATGTGTAAAATTAAT [COV24]
Primary Screening (KD %, 60 ng/well, 48 h, 96 well) 293T [1]: 86% | EC50 (pg/ul, 48 h, 96 well) 293T [1]: 2.4 pg/µL | EC50 293T cells [1]: 2.4 ng/mL | block of infection at the lowest concentration tested (SARS-CoV-2): complete block of infection

CUAAUCUUGCUGCUACUAAAAUGUC (antisense strand not given here) [Guangzhou23]
Primary Screening (KD %, 60 ng/well, 48 h, 96 well) 293T [1]: 79% | Primary Screening (KD %, 60 ng/well, 48 h, 96 well) A549 ([2]; A549): 87%

CCCTAATGTGTAAAATTAA [COV23]
block of infection at the lowest concentration tested (SARS-CoV-2): complete block of infection

CUAAUCUUGCUGCUACUAAdTdT [Guangzhou12]
Primary Screening (KD %, 60 ng/well, 48 h, 96 well) 293T [1]: 70% | Primary Screening (KD %, 60 ng/well, 48 h, 96 well) A549 ([2]; A549): 85%

CCTTTGAAAAAGGTGACTA [COV5]
Primary Screening (KD %, 60 ng/well, 48 h, 96 well) 293T [1]: 85% | Primary Screening (KD %, 60 ng/well, 48 h, 96 well) A549 ([2]; A549): 84%

UUGGUGGUUUUAAUUUUUCACAAAU (antisense strand not given here) [Guangzhou31]
Primary Screening (KD %, 60 ng/well, 48 h, 96 well) 293T [1]: 81% | EC50 (pg/ul, 48 h, 96 well) 293T [1]: 44 pg/µL | Primary Screening (KD %, 60 ng/well, 48 h, 96 well) A549 ([2]; A549): 73%

GGCCGCAAATTGCACAATT [COV14]
block of infection at the lowest concentration tested (SARS-CoV-2): complete block of infection | Duplicate A % Infection (SARS-CoV-2): 9% | Duplicate B % Infection (SARS-CoV-2): 8% | Mean % infected (SARS-CoV-2): 8% | Mean % inhibition (SARS-CoV-2): 66% | Duplicate A % Inhibition (SARS-CoV-2): 57% | Duplicate B % Inhibition (SARS-CoV-2): 75% | activity in a primary screen using live virus (ranking in words) (SARS-CoV-2): best activity

CCACCAACAGAGCCTAAAA [COV18]
inhibition of the virus (SARS-CoV-2): 100% | block of infection at the lowest concentration tested (SARS-CoV-2): complete block of infection | Duplicate A % Infection (SARS-CoV-2): 9% | Duplicate B % Infection (SARS-CoV-2): 7% | Mean % infected (SARS-CoV-2): 8% | Mean % inhibition (SARS-CoV-2): 68% | Duplicate A % Inhibition (SARS-CoV-2): 59% | Duplicate B % Inhibition (SARS-CoV-2): 76% | activity in a primary screen using live virus (ranking in words) (SARS-CoV-2): best activity

CCCACCAACAGAGCCTAAA [COV17]
block of infection at the lowest concentration tested (SARS-CoV-2): complete block of infection

CGCTTCGATTGTGTGCGTA [COV9]
Primary Screening (KD %, 60 ng/well, 48 h, 96 well) 293T [1]: 88% | Primary Screening (KD %, 60 ng/well, 48 h, 96 well) A549 ([2]; A549): 74% | inhibition of infection compared to the NS control (SARS-CoV-2): ~50%

GCCATTAGTGCAAAGAATA [COV4]
inhibition of the virus (SARS-CoV-2): 100% | block of infection at the lowest concentration tested (SARS-CoV-2): complete block of infection | Duplicate A % Infection (SARS-CoV-2): 6% | Duplicate B % Infection (SARS-CoV-2): 5% | Mean % infected (SARS-CoV-2): 6% | Mean % inhibition (SARS-CoV-2): 77% | Duplicate A % Inhibition (SARS-CoV-2): 70% | Duplicate B % Inhibition (SARS-CoV-2): 84% | activity in a primary screen using live virus (ranking in words) (SARS-CoV-2): best activity

GGACAAUCAAAAAGAGUUGdTdT [Guangzhou16]
Primary Screening (KD %, 60 ng/well, 48 h, 96 well) 293T [1]: 83% | EC50 (pg/ul, 48 h, 96 well) 293T [1]: 20.4 pg/µL | Primary Screening (KD %, 60 ng/well, 48 h, 96 well) A549 ([2]; A549): 80%

GCUAAUCUUGCUGCUACUAAAAUGU [Guangzhou22]
Primary Screening (KD %, 60 ng/well, 48 h, 96 well) 293T [1]: 83% | EC50 (pg/ul, 48 h, 96 well) 293T [1]: 23.2 pg/µL | Primary Screening (KD %, 60 ng/well, 48 h, 96 well) A549 ([2]; A549): 90%

CUUGCUGCUACUAAAAUGUdTdT [Guangzhou13]
Primary Screening (KD %, 60 ng/well, 48 h, 96 well) 293T [1]: 76% | Primary Screening (KD %, 60 ng/well, 48 h, 96 well) A549 ([2]; A549): 82%

CCAGAACAAACCCAAGGAA [COV13]
Primary Screening (KD %, 60 ng/well, 48 h, 96 well) 293T [1]: 84% | EC50 (pg/ul, 48 h, 96 well) 293T [1]: 3.1 pg/µL | EC50 293T cells [1]: 3.1 ng/mL

UCUGCUAAUCUUGCUGCUACUAAAA (antisense strand not given here) [Guangzhou32]
Primary Screening (KD %, 60 ng/well, 48 h, 96 well) 293T [1]: 89% | EC50 (pg/ul, 48 h, 96 well) 293T [1]: 8 pg/µL | EC50 293T cells [1]: ~8 ng/mL | Primary Screening (KD %, 60 ng/well, 48 h, 96 well) A549 ([2]; A549): 90%

CUGCUAAUCUUGCUGCUACUAAAAU [Guangzhou21]
Primary Screening (KD %, 60 ng/well, 48 h, 96 well) 293T [1]: 81% | Primary Screening (KD %, 60 ng/well, 48 h, 96 well) A549 ([2]; A549): 91%

UGCUAAUCUUGCUGCUACUAAAAUG (antisense strand not given here) [Guangzhou25]
Primary Screening (KD %, 60 ng/well, 48 h, 96 well) 293T [1]: 83% | Primary Screening (KD %, 60 ng/well, 48 h, 96 well) A549 ([2]; A549): 90%

GGAAGGAAGTTCTGTTGAA [COV3]
EC50 on the inhibition efficiency [1]: 5.8 ng/mL | Primary Screening (KD %, 60 ng/well, 48 h, 96 well) 293T [1]: 89% | EC50 (pg/ul, 48 h, 96 well) 293T [1]: 5.8 pg/µL | EC50 293T cells [1]: 5.8 ng/mL | EC50 on the inhibition efficiency ([2]; A549): 0.3 ng/mL | Primary Screening (KD %, 60 ng/well, 48 h, 96 well) A549 ([2]; A549): 89% | EC50 (pg/ul, 48 h, 96 well) A549 ([2]; A549): 0.3 pg/µL | EC50 A549 cells [2]: 0.3 ng/mL | inhibition of the virus (SARS-CoV-2): 100% | inhibition, single siRNA alone (SARS-CoV-2; 0.041 nM alone): ~48% | block of infection at the lowest concentration tested (SARS-CoV-2): complete block of infection | Duplicate A % Infection (SARS-CoV-2): 3% | Duplicate B % Infection (SARS-CoV-2): 6% | Mean % infected (SARS-CoV-2): 5% | Mean % inhibition (SARS-CoV-2): 81% | Duplicate A % Inhibition (SARS-CoV-2): 84% | Duplicate B % Inhibition (SARS-CoV-2): 79% | activity in a primary screen using live virus (ranking in words) (SARS-CoV-2): best activity
